We go through 2 compounds from paper PMC10381533, “Inhibitory Effects of the Fungal Pigment Rubiginosin C on Hyphal and Biofilm Formation in Candida albicans and Candida auris” (Journal of Fungi, 2023).

“And” between values parts separate entries of the source, which are not always exact repeats. Equal values may be shown once. Bounds are passed on as bounds.

Holding throughout (type): cell-based
In experiment [1] the test system is human endocervical adenocarcinoma KB-3-1 [ACC 158] cells. As to the kind of experiment: MTT cytotoxicity assay, KB-3-1. The conditions noted are these: KB-3-1, MTT, tested 37 μg/mL–0.63 ng/mL, read-out: IC50. The protocol: (§1) Cytotoxic effects were evaluated on human endocervical adenocarcinoma KB-3-1 [ACC 158] cells and mouse fibroblasts L929 [ACC 2] upon treatment with Rub C, W, and Rut A and B within the concentration range of 37 μg/mL–0.63 ng/mL. The half-maximum inhibitory concentrations (IC50) were determined by standard MTT assays as reported previously (see the Supplementary Material for detailed information). The IC50 values of Rub A and Z have currently been reported. […]
(§2) KB-3-1 (ACC 158) cervix carcinoma as well as L929 (ACC 2) mouse fibroblasts were cultured under standard cell culture conditions (37 °C, 5% CO2, 95% humidified atmosphere). The cells were maintained in high glucose DMEM containing 10% fetal bovine serum and 100 U/mL penicillin and streptomycin (Gibco, Thermo Fisher Scientific, Waltham, USA). Cell lines were serially passaged after trypsinization, using 0.05% trypsin / 0.02% EDTA solution. The cultures were routinely monitored for potential contamination, and only mycoplasma free cultures were used. The test compounds were investigated for their anti-proliferative effect on cell lines, using the 3-(4,5-dimethylthiazol-2-yl)-2,5-diphenyltetrazolium bromide (MTT) based cell viability assay. Cells were seeded in 96 well microtiter plates (Sarstedt, Germany) with a cell density of 0.05 * 10^6 cells per mL and 100 μL per well and were incubated for 24 h. […]
(§3) Absorbances at 570 nm and 630 nm were measured with a plate reader (Tecan, Männedorf, canton of Zürich, Switzerland). Background absorbance (630 nm) was subtracted from the formazan signal (570 nm). The resulting absorbance is directly proportional to the amount of viable cells. The control was normalized to 100% viable cells, and the viability of cells treated with the test compounds was calculated accordingly. IC50 values were calculated based on a sigmoidal fit model using GraphPad Prism. Means and SD were calculated from at least four independent experiments. […]
(In general: Formazan colour is commonly taken as a measure of viable cells.)

In experiment [2] the test system is mouse fibroblasts L929 [ACC 2]. As to the kind of experiment: MTT cytotoxicity assay, L929. The conditions noted are these: MTT, tested 37 μg/mL–0.63 ng/mL, read-out: IC50. The protocol: as §1, §2, §3
Experiment [3] relates to murine fibroblasts (L929) and human endocervical adenocarcinoma cells (KB-3-1). As to the kind of experiment: MTT cytotoxicity, range stated over both cell lines. The note with it: range over Rut A and Rut B and over L929 and KB-3-1. The protocol:
as §1
KB-3-1 (ACC 158) cervix carcinoma as well as L929 (ACC 2) mouse fibroblasts were cultured under standard cell culture conditions (37 °C, 5% CO2, 95% humidified atmosphere). […] The cultures were routinely monitored for potential contamination, and only mycoplasma free cultures were used. […]
as §3

Experiment [4] relates to Staphylococcus aureus (DSM 1104) biofilm. As to the kind of experiment: Crystal violet biofilm inhibition assay, S. aureus. The conditions noted are these: for inhibitory effects against the biofilm formation of S. aureus: CV assay; for inhibition at 2 µg/mL / inhibition at 3.9 µg/mL / inhibition at 7.8 µg/mL / inhibition at 15.6 µg/mL / inhibition at 31.3 µg/mL / inhibition at 62.5 µg/mL / inhibition at 125 µg/mL / inhibition at 250 µg/mL: Staphylococcus aureus, DSM1104, read-out: inhibition of S. aureus biofilm formation compared to solvent control (= 0%). The protocol:
Selected azaphilones Rub C and W, Rut A and B were tested against the formation of biofilms in Staphylococcus aureus (DSM 1104). S. aureus DSM 1104 from a −20 °C stock was precultured in 25 mL CASO (casein-peptone soymeal-peptone) medium in a 250 mL flask at 37 °C with 100 rpm for 20 h. The OD600 of the culture solution was adjusted to 0.001 McFarland standard and incubated in 96-well microtiter plates (TPP tissue culture ref.no 92196, Switzerland) for 18 h at 37 °C with 150 μL of serially diluted test […]
compounds (250–2 μg/mL) in CASO with 4% glucose broth. The inhibition of biofilm formation was evaluated by staining with 150 μL of 0.1% crystal violet (CV; Thermo Fisher) following previously established protocols. In the next step, the supernatant of the 96-well plate was discarded and the wells were rinsed once with PBS buffer. The remaining biofilms were stained at room temperature for 15 min, rinsed three times with PBS buffer, and finally dissolved in 150 μL ethanol (95%). The absorbance of the resulting solution at 530 nm was quantified using a plate reader (Synergy 2, BioTek). Methanol (2.5%) and microporenic acid A (MAA) (250–2 μg/mL) were used as negative and positive controls. Standard deviations (SD) of two repeats with duplicates were 10% or less. […]
μg/mL) were used as negative control and positive control, respectively. The assay was conducted for […]
(§4) Table S2: Selected azaphilones were tested against the formation of biofilm of S. aureus, P. aeruginosa as well as C. auris and dispersal effect on preformed biofilm of S. aureus compared to solvent control (= 0%), respectively. SDs are shown as ±SD.
(§5) Compounds Strains Concentrations [µg/mL] […]

Experiment [5] concerns Pseudomonas aeruginosa (PA 14) DSM 19882 biofilm. As to the kind of experiment: Crystal violet biofilm inhibition assay, P. aeruginosa. The note with it: Pseudomonas aeruginosa, DSM19882, assay conducted once, read-out: inhibition of P. aeruginosa biofilm formation compared to solvent control (= 0%). On the procedure: Selected azaphilones Rub C and W, Rut A and B were tested against the formation of biofilms in Pseudomonas aeruginosa (PA 14) DSM 19882. Bacterial strain was precultured in 25 mL LB medium (Luria - Bertani Broth) with a 250 mL flask at 37 °C with shaking 100 rpm overnight. The turbidity of the baterial solution was measured and diluted to match the turbidity of a 0.1 McFarland standard in M63 medium, which is supplemented with magnesium sulfate, glucose and casamino acids as previously described. The compounds were added into 150 μL bacterial solution at the concentration (250–2 μg/mL) then the solution was added in U-bottom 96 well plate (Falcon ref.no 351177, Thermo Fisher Scientific). The plates were incubated at 37 °C at 150 rpm for 24 h and biofilms were established at the air liquid interface. The plates were rinsed once by using PBS buffer, the biofilms were stained by 150 μL 0.1% CV at room temperature for 15 min and then rinsed two times by using PBS buffer. The absorbance was quantified with the plate reader (Synergy 2, BioTek) at 550 nm using ethanol (95%). Methanol (2.5 %) and myxovalargin A (250 –2 μg/mL) were used as negative control and positive control, respectively. The assay was conducted for […]
as §4, §5

The IC50 is the concentration at which inhibition is half-maximal. As usually defined, the inhibition is the change of the read-out against control, counted positive when it falls. Turning to `CC(=O)OC/C=C/C1=CC2=C(CO1)C(=O)[C@@](C)(OC(=O)c1c(C)cc(O)cc1O)C(=O)/C2=C\C=C\C1=CC2=C(CO1)C(=O)[C@@](C)(O)[C@@H](OC(=O)c1c(C)cc(O)cc1O)C2` [Rut A, rutilin A], in experiment [1], the IC50 stood at 1100 nM. Moreover, the IC50 in experiment [2] worked out at 1200 nM. In experiment [3], the IC50 was 1.1 µM to 2.2 µM and 0.9 µg/mL to 1.8 µg/mL. In experiment [4], the “inhibitory effects against the biofilm formation of S. aureus” value is “moderate inhibitory effects”, the inhibition at 2 µg/mL was less than 20%, the inhibition at 3.9 µg/mL was less than 20% and the inhibition at 7.8 µg/mL was less than 20%. Moreover, in experiment [4], the inhibition at 15.6 µg/mL worked out at 21 ± 2%, the inhibition at 31.3 µg/mL was determined as 51 ± 10%, the inhibition at 62.5 µg/mL was found to be 51 ± 10% and the inhibition at 125 µg/mL stood at 55 ± 9%. Moreover, in experiment [4], the inhibition at 250 µg/mL came out at 60 ± 6%. In experiment [5], the inhibition at 2 µg/mL is less than 20%, the inhibition at 3.9 µg/mL was less than 20%, the inhibition at 7.8 µg/mL is less than 20% and the inhibition at 15.6 µg/mL is less than 20%. Besides, in experiment [5], the inhibition at 31.3 µg/mL is less than 20%, the inhibition at 62.5 µg/mL is less than 20%, the inhibition at 125 µg/mL was less than 20% and the inhibition at 250 µg/mL is less than 20%.

Regarding `CC(=O)OC/C=C/C1=CC2=C(CO1)C(=O)[C@@](C)(OC(=O)c1c(C)cc(O)cc1O)C(=O)/C2=C\C=C\C1=CC2=C(CO1)C(=O)[C@@](C)(OC(=O)c1c(C)cc(O)cc1O)[C@@H](O)C2` [Rut B, rutilin B], the IC50 in experiment [1] amounted to 1500 nM. The IC50 in experiment [2] was 2200 nM. In addition, the IC50 in experiment [3] is 1.1 µM to 2.2 µM and 0.9 µg/mL to 1.8 µg/mL. Besides, in experiment [4], the “inhibitory effects against the biofilm formation of S. aureus” value was “moderate inhibitory effects”, the inhibition at 2 µg/mL amounted to 86 ± 2%, the inhibition at 3.9 µg/mL was 88 ± 1% and the inhibition at 7.8 µg/mL worked out at 88 ± 1%. Also, in experiment [4], the inhibition at 15.6 µg/mL was found to be 87 ± 2%, the inhibition at 31.3 µg/mL was found to be 86 ± 2%, the inhibition at 62.5 µg/mL turned out to be 86 ± 2% and the inhibition at 125 µg/mL turned out to be 85 ± 2%. For the same compound, the inhibition at 250 µg/mL in experiment [4] worked out at 84 ± 2%. In experiment [5], the inhibition at 2 µg/mL was less than 20%, the inhibition at 3.9 µg/mL is less than 20%, the inhibition at 7.8 µg/mL was less than 20% and the inhibition at 15.6 µg/mL was less than 20%. Further, in experiment [5], the inhibition at 31.3 µg/mL was less than 20%, the inhibition at 62.5 µg/mL was less than 20%, the inhibition at 125 µg/mL was less than 20% and the inhibition at 250 µg/mL was less than 20%.
